From ChEMBL document CHEMBL4732223, “Prenylated flavonoids from Ficus hirta induces HeLa cells apoptosis via MAPK and AKT signaling pathways” (Bioorg Med Chem Lett, 2021)
Active and inactive are the calls of the source. The calls are words filed in the database; no cut-off is given here.

Columns and labels:
[1] = system: MCF7; assay: Cytotoxicity against human MCF7 cells assessed as inhibition of cell proliferation by MTT assay; assay type: functional, cell-based
[2] = system: NCI-H460; assay: Cytotoxicity against human NCI-H460 cells assessed as inhibition of cell proliferation by MTT assay; assay type: functional, cell-based
[3] = system: HeLa; assay: Cytotoxicity against human HeLa cells assessed as inhibition of cell proliferation by MTT assay; assay type: functional, cell-based
[4] = system: HepG2; assay: Cytotoxicity against human HepG2 cells assessed as inhibition of cell proliferation by MTT assay; assay type: functional, cell-based
[5] = system: HeLa; assay: Activation of MAPK signaling pathway in human HeLa cells assessed as reduction in phosphorylated ERK expression measured after 24 hrs by Western blot analysis; assay type: cell-based; details: filed as activator, dose 10-30 µM
[6] = Induction of apoptotis in human HeLa cells assessed as early apoptotic cells at 20 uM measured after 24 hrs by FITC/propidium iodide staining based flow cytometry (reference value: 5.46 %); assay type: functional
[7] = Induction of apoptotis in human HeLa cells assessed as necrotic cells at 20 uM measured after 24 hrs by FITC/propidium iodide staining based flow cytometry (reference value: 2.59 %); assay type: functional
[8] = Induction of apoptotis in human HeLa cells assessed as live cells at 20 uM measured after 24 hrs by FITC/propidium iodide staining based flow cytometry (reference value: 89.2 %); assay type: functional
[9] = Induction of apoptotis in human HeLa cells assessed as early apoptotic cells at 10 uM measured after 24 hrs by FITC/propidium iodide staining based flow cytometry (reference value: 5.46 %); assay type: functional
[10] = Induction of apoptotis in human HeLa cells assessed as live cells at 10 uM measured after 24 hrs by FITC/propidium iodide staining based flow cytometry (reference value: 89.2 %); assay type: functional
[11] = system: HeLa; assay: Activation of MAPK signaling pathway in human HeLa cells assessed as increase in phosphorylated JNK protein level at 30 uM measured after 24 hrs by Western blot analysis; assay type: cell-based; details: filed as activator
[12] = Induction of apoptotis in human HeLa cells assessed as early apoptotic cells at 40 uM measured after 24 hrs by FITC/propidium iodide staining based flow cytometry (reference value: 5.46 %); assay type: functional
[13] = system: HeLa; assay: Activation of MAPK signaling pathway in human HeLa cells assessed as increase in phosphorylated p38 protein level at 30 uM measured after 24 hrs by Western blot analysis; assay type: cell-based; details: filed as activator
[14] = Induction of apoptotis in human HeLa cells assessed as late apoptotic cells at 10 uM measured after 24 hrs by FITC/propidium iodide staining based flow cytometry (reference value: 2.74 %); assay type: functional
[15] = Induction of apoptotis in human HeLa cells assessed as late apoptotic cells at 30 uM measured after 24 hrs by FITC/propidium iodide staining based flow cytometry (reference value: 2.74 %); assay type: functional
[16] = Induction of apoptotis in human HeLa cells assessed as live cells at 30 uM measured after 24 hrs by FITC/propidium iodide staining based flow cytometry (reference value: 89.2 %); assay type: functional
[17] = Induction of apoptotis in human HeLa cells assessed as early apoptotic cells at 30 uM measured after 24 hrs by FITC/propidium iodide staining based flow cytometry (reference value: 5.46 %); assay type: functional
[18] = Induction of apoptotis in human HeLa cells assessed as necrotic cells at 40 uM measured after 24 hrs by FITC/propidium iodide staining based flow cytometry (reference value: 2.59 %); assay type: functional
[19] = system: HeLa; assay: Induction of apoptosis in human HeLa cells assessed as increase in PARP cleavage measured after 24 hrs by Western blot analysis; assay type: functional, cell-based; details: dose 10-30 µM
[20] = Induction of apoptotis in human HeLa cells assessed as necrotic cells at 10 uM measured after 24 hrs by FITC/propidium iodide staining based flow cytometry (reference value: 2.59 %); assay type: functional
[21] = Induction of apoptotis in human HeLa cells assessed as necrotic cells at 30 uM measured after 24 hrs by FITC/propidium iodide staining based flow cytometry (reference value: 2.59 %); assay type: functional
[22] = Induction of apoptotis in human HeLa cells assessed as live cells at 40 uM measured after 24 hrs by FITC/propidium iodide staining based flow cytometry (reference value: 89.2 %); assay type: functional
[23] = Induction of apoptotis in human HeLa cells assessed as late apoptotic cells at 20 uM measured after 24 hrs by FITC/propidium iodide staining based flow cytometry (reference value: 2.74 %); assay type: functional
[24] = target: Serine/threonine-protein kinase AKT (Homo sapiens) (UniProt P31751+Q9Y243+P31749); assay: […] of AKT signaling pathway in human HeLa cells assessed as reduction in phosphorylated AKT expression measured after 24 hrs by Western blot analysis; assay type: cell-based; details: dose 10-30 µM
[25] = Induction of apoptotis in human HeLa cells assessed as late apoptotic cells at 40 uM measured after 24 hrs by FITC/propidium iodide staining based flow cytometry (reference value: 2.74 %); assay type: functional

Chain of Serine/threonine-protein kinase AKT (Homo sapiens) (P31749 whole entry, looked up): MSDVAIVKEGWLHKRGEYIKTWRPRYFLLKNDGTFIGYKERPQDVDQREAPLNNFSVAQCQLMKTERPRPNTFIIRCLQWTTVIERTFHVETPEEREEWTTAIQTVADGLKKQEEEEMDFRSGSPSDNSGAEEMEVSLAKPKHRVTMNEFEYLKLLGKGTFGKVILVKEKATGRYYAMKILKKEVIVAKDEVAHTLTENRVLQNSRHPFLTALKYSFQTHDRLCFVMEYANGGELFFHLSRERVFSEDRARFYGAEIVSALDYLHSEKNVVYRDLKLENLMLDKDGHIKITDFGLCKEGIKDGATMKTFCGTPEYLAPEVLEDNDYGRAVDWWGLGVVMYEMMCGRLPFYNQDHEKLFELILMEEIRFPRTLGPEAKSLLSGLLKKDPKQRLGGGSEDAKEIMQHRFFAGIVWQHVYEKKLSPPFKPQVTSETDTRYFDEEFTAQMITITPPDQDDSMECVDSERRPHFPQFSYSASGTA
Chain of Serine/threonine-protein kinase AKT (Homo sapiens) (P31751 whole entry, looked up): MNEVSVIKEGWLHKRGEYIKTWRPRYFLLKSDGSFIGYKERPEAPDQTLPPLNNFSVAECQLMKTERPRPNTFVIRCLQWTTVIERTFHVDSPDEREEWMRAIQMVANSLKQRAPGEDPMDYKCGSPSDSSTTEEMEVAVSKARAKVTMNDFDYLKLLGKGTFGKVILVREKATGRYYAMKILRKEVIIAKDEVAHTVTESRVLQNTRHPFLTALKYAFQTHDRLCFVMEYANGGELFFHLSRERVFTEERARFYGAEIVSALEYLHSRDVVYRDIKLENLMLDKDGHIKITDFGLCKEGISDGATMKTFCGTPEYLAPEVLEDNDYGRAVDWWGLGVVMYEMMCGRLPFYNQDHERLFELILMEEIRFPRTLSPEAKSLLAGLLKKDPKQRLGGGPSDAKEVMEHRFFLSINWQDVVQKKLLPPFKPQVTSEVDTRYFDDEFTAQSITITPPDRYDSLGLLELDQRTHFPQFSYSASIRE
Chain of Serine/threonine-protein kinase AKT (Homo sapiens) (Q9Y243 whole entry, looked up): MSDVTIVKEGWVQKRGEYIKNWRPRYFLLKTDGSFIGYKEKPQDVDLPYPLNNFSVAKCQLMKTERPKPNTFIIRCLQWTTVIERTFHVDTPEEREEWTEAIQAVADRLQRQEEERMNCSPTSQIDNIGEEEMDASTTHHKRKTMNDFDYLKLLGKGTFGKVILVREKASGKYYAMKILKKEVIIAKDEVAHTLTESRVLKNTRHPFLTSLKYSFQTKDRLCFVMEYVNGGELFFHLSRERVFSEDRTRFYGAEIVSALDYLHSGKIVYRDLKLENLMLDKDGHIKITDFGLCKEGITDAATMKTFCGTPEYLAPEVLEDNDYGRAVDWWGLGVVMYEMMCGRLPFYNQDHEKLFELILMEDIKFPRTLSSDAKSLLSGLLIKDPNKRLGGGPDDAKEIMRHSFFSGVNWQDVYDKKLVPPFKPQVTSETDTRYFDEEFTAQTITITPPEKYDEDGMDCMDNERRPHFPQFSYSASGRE

For `CC(C)=CCc1cc(-c2cc(=O)c3c(O)cc(O)cc3o2)cc(O)c1O`, which IC50 [1] is on record?
The IC50 was over 40 µM.

What about the IC50 [2] of the same compound?
Its IC50 is over 40 µM.

And the IC50 [3]?
The IC50 was over 40 µM.

What about the IC50 [4] of the same compound?
Its IC50 is over 40 µM.

What does the source list for `CC(C)=CCc1c(O)cc(O)c2c(=O)cc(-c3ccc(O)cc3)oc12`?
IC50 [1]: > 40 µM; IC50 [2]: > 40 µM; IC50 [3]: > 40 µM; IC50 [4]: > 40 µM

For `CC(C)=CCc1cc(-c2cc(=O)c3c(O)cc(O)cc3o2)ccc1O`, which IC50 [1] is on record?
The IC50 was over 40 µM.

And the IC50 [2]?
The IC50 was over 40 µM.

And the IC50 [3]?
Its IC50 is over 40 µM.

What about the IC50 [4] of the same compound?
The IC50 was over 40 µM.

Which IC50 [1] does the source give for `CC(C)=CCc1c(O)cc2oc(-c3ccc(O)c(O)c3)cc(=O)c2c1O` here?
Its IC50 is over 40 µM.

What about the IC50 [2] of the same compound?
Its IC50 is over 40 µM.

And the IC50 [3]?
Its IC50 is over 40 µM.

And the IC50 [4]?
The IC50 was over 40 µM.

With `CC(C)=CCc1c(O)cc2oc(-c3ccc(O)cc3)cc(=O)c2c1O` as the compound, how does the Activity [5] read?
The Activity was “Dose-dependent effect”.

And the IC50 [1]?
The IC50 was 32.4 µM.

And the Activity [6]?
The Activity was 8.25%.

And the Activity [7]?
Its Activity is 0.88%.

What about the Activity [8] of the same compound?
The Activity was 87.6%.

What about the IC50 [2] of the same compound?
Its IC50 is 38.5 µM.

What about the Activity [9] of the same compound?
Its Activity is 6.92%.

What about the IC50 [3] of the same compound?
The IC50 was 28.9 µM.

What about the Activity [10] of the same compound?
Its Activity is 88.2%.

What about the Activity [11] of the same compound?
The Activity was “Active”.

And the Activity [12]?
The Activity was 12.5%.

And the Activity [13]?
Its Activity is “Active”.

What about the Activity [14] of the same compound?
Its Activity is 4.11%.

And the Activity [15]?
The Activity was 3.4%.

What about the Activity [16] of the same compound?
Its Activity is 86.5%.

What about the Activity [17] of the same compound?
The Activity was 9.41%.

What about the Activity [18] of the same compound?
Its Activity is 0.63%.

What about the Activity [19] of the same compound?
Its Activity is “Dose-dependent effect”.

What about the IC50 [4] of the same compound?
Its IC50 is over 40 µM.

And the Activity [20]?
Its Activity is 0.75%.

And the Activity [21]?
Its Activity is 0.69%.

And the Activity [22]?
Its Activity is 82.6%.

What about the Activity [23] of the same compound?
Its Activity is 3.23%.

What about the Activity [24] of the same compound?
The Activity was “Dose-dependent effect”.

What about the Activity [25] of the same compound?
Its Activity is 4.28%.

Which results are given for `COc1c(CC=C(C)C)cc(C2CC(=O)c3c(O)cc(O)cc3O2)c(CC=C(C)C)c1OC` (racemic)?
IC50 [1]: > 40 µM; IC50 [2]: > 40 µM; IC50 [3]: > 40 µM; IC50 [4]: > 40 µM
